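Grown in 96-well plates, cells were treated for 48 hours with each compound at five concentrations. Insufficient inhibition: endpoint recorded as highest concentration tested. At the GI50, growth is halved. Definition used: TGI = concentration required for complete inhibition of growth.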
Tests used:
Experiment in all cases: NCI tumour cell line growth inhibition, 48 h
SN12C renal = tested on: SN12C renal
NCI-H226 lung = tested on: NCI-H226 lung
SW-620 colon = tested on: SW-620 colon
HCT-116 colon = tested on: HCT-116 colon
SF-295 CNS = tested on: SF-295 CNS
EKVX NSCLC = tested on: EKVX NSCLC
U251 CNS = tested on: U251 CNS
NCI-H460 lung = tested on: NCI-H460 lung
SK-MEL-5 melanoma = tested on: SK-MEL-5 melanoma
SK-MEL-28 melanoma = tested on: SK-MEL-28 melanoma

| Compound | GI50 (SN12C renal) | TGI (SN12C renal) | GI50 (NCI-H226 lung) | TGI (NCI-H226 lung) | GI50 (SW-620 colon) | TGI (SW-620 colon) | GI50 (HCT-116 colon) | TGI (HCT-116 colon) | GI50 (SF-295 CNS) | TGI (SF-295 CNS) | GI50 (EKVX NSCLC) | TGI (EKVX NSCLC) | GI50 (U251 CNS) | TGI (U251 CNS) | GI50 (NCI-H460 lung) | TGI (NCI-H460 lung) | GI50 (SK-MEL-5 melanoma) | TGI (SK-MEL-5 melanoma) | GI50 (SK-MEL-28 melanoma) | TGI (SK-MEL-28 melanoma) |
| --- | --- | --- | --- | --- | --- | --- | --- | --- | --- | --- | --- | --- | --- | --- | --- | --- | --- | --- | --- | --- |
| CN(C)c1ccc(/C=N/S(=O)(=O)c2ccc(-n3c(-c4ccccc4)nc4c(Br)cc(Br)cc4c3=O)cc2)cc1 | 43.4 µM | > 100 µM | 53.8 µM | > 100 µM | 46.2 µM | > 100 µM | 33.2 µM | > 100 µM | 35.5 µM | > 100 µM | 27.6 µM | 91.6 µM | 40.7 µM | > 100 µM | 28.5 µM | > 100 µM | 15.3 µM | 38.3 µM | 43.6 µM | > 100 µM |
| COc1cc2c(c(OC)c1OC)-c1ccc(N=NC(N)=S)c(=O)cc1[C@@H](NC(C)=O)CC2 | 1.52 µM | > 100 µM | 2.01 µM | > 29.4 µM | 0.421 µM | > 100 µM | 0.396 µM |  | 1.45 µM | > 100 µM | > 100 µM | > 100 µM | 0.426 µM | > 100 µM | 0.418 µM | 12.2 µM | 0.324 µM | 1.24 µM | 0.808 µM | > 100 µM |
| CCCCCCCCCCCc1c(O)c(=O)c2c(oc3c(=O)c(CCCCCCCCCCC)c(O)c(=O)c3n2-c2ccc(N(C)C)cc2)c1=O |  | 36.8 µM |  | 36.3 µM |  | 68.6 µM |  | 36.6 µM |  | 46.2 µM |  | 67.7 µM |  | 44.1 µM |  | 36.1 µM |  | 34 µM |  | 40 µM |
| Cc1[nH]c2cc(F)ccc2c1-c1nc2c3cccnc3c3ncccc3c2[nH]1 | 0.399 µM | 3.38 µM | 0.168 µM | 0.812 µM | 0.282 µM | 1.84 µM | 0.164 µM | 1.5 µM | 0.253 µM | 0.818 µM | 0.32 µM | 2.69 µM | 0.121 µM | 1.22 µM | 0.322 µM | 1.03 µM | 0.169 µM | 0.726 µM | 0.239 µM | 1.72 µM |
| CCCCNc1ccc(Nc2ccccc2)cc1 | 6.28 µM | > 100 µM | 12.5 µM | > 100 µM | 5.06 µM | > 100 µM | 2.97 µM | 22.7 µM | 4.63 µM | 64.4 µM | 3.53 µM | > 100 µM | 3.89 µM | > 100 µM | 4.61 µM | 43 µM | 2.78 µM | 10.1 µM | 10.4 µM | 60.2 µM |
| COc1ccc(C(=O)C#Cc2c[nH]c(=O)[nH]c2=O)cc1 |  | 19.4 µM |  | 42.4 µM |  | 26.7 µM |  | 18.3 µM |  | 96.2 µM |  | > 54.4 µM |  | 22.7 µM |  | 73.9 µM |  | 27.9 µM |  | 30.1 µM |
| CC1(C)Cc2c(Br)c(Br)c(Br)c(OCC(O)CN3CCN(c4ccccn4)CC3)c2O1 (centres undefined) | 14.4 µM | 28.4 µM | 15.3 µM | 38.2 µM | 15.2 µM | 29.2 µM | 5.8 µM | 23.5 µM | 6.11 µM | 21.4 µM | 11.3 µM | 43.2 µM | 11.3 µM | 23.3 µM | 9.43 µM | 22.9 µM | 10.8 µM | 23.1 µM | 18 µM | 32.7 µM |
| CC1OC(CC(=O)O)CC2=C1C(=O)c1c(O)cccc1C2=O (centres undefined) |  | 0.716 µM |  | 3.13 µM |  | 0.207 µM |  | 0.243 µM |  | 2.51 µM |  | 2.02 µM |  | 2.38 µM |  | 3.58 µM |  | 1.15 µM |  | 0.2 µM |
| O=c1c2cc3c(cc2c2cccc4c2n1CCC4)OCO3 |  | > 100 µM |  | > 100 µM |  | > 100 µM |  | 71.1 µM |  | > 100 µM |  | 99.5 µM |  | 73.5 µM |  | > 100 µM |  | > 100 µM |  | > 100 µM |
| COc1cc2oc3c(c(=O)c2c(O)c1/C=C/C(C)C)C(C=C(C)C)Oc1cc(O)ccc1-3 (centres undefined) |  | 30.4 µM |  | 32.7 µM |  | 32.3 µM |  | 28.1 µM |  | 31.4 µM |  | 30.3 µM |  | 31.1 µM |  | 30.9 µM |  | 39.9 µM |  | 31.2 µM |
| O=[N+]([O-])c1cc2no[n+]([O-])c2cc1N1CCCCC1 |  | 4.34 µM |  | > 100 µM |  | > 100 µM |  | 5.99 µM |  | 34.8 µM |  | 8.98 µM |  | 20.2 µM |  | 56.6 µM |  | 41.7 µM |  | 32.9 µM |
| Cc1cccc2c3c(sc12)C(c1ccc(F)cc1)C(C#N)=C(N)O3 (centres undefined) | 0.159 µM | 11.7 µM | 0.239 µM | 3.9 µM | 0.044 µM | 14.2 µM | 0.052 µM | 3.43 µM | 0.0284 µM | 0.329 µM | 0.141 µM | 17.6 µM | 0.13 µM | 12.6 µM | 0.0537 µM | 2.52 µM | 0.111 µM | 1.38 µM | 1.97 µM | 20.7 µM |
| COc1cccc(SSc2cccc(OC)c2C(=O)O)c1C(=O)O |  | > 100 µM |  | > 100 µM |  | > 100 µM |  | > 100 µM |  | > 100 µM |  | > 100 µM |  | > 100 µM |  | > 100 µM |  | > 100 µM |  | > 100 µM |
| CC1=Nc2c([nH]c(=S)[nH]c2=O)NC(c2c(Cl)cccc2Cl)C1 (centres undefined) |  | 3.09 µM |  | 15 µM |  | 2.05 µM |  | 1.59 µM |  | 4.41 µM |  | 18.7 µM |  | 2.32 µM |  | 5.64 µM |  | 9.99 µM |  | 6.26 µM |
| CC(=O)c1ccc(NC(=O)COC(=O)c2cccc3c(=O)c4ccccc4[nH]c23)cc1 |  | > 100 µM |  | 46.2 µM |  | > 100 µM |  | 42.8 µM |  | 49.2 µM |  | > 100 µM |  | 86.5 µM |  | > 100 µM |  | > 100 µM |  | > 100 µM |
| O=c1cccc(-c2cccc(=O)[nH]2)[nH]1 |  | > 100 µM |  | > 100 µM |  | > 100 µM |  | > 100 µM |  | > 100 µM |  | > 100 µM |  | > 100 µM |  | > 100 µM |  | > 100 µM |  | > 100 µM |
